From patent US8093296B2 (Mutual Pharmaceutical Company, Inc., priority 2008, dated 2012)
Entries after “also recorded” stand apart in the source; their conditions may differ. Like-named read-outs stand apart in the source and are kept apart here.

How the values were obtained:
[1] = Pharmacokinetic study in healthy adults of single vs. multiple oral doses of colchicine tablets (Example 1); format: in vivo, human; conditions: for concentration at 25 day: 0.6 mg;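 as to all read-outs here: each subject received both dosing periods, single and repeated oral dosing, with a 14-day washout interval between periods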
Protocol: Subjects received a light breakfast served 60 minutes following dose administration in the morning and the evening dose was administered 90 minutes after an evening meal on Days 15 through 24 only. […] Study periods were separated by a 14-day washout. Following the single dose and the last dose of the multiple dose regimen (beginning on the mornings of Day 1 and Day 25, respectively), blood samples were collected (6 mL each) from each subject within 1 hour prior to dosing and after dose administration at study hours 0.5, 1, 1.5, 2, 3, 4, 6, 8, 10, 12, and 24 (while confined) and 36, 48, 72, and 96 (on an outpatient basis).

[2] = Colchicine elimination half-life after multiple oral doses in young healthy volunteers; format: in vivo; conditions: human, plasma; multiple oral doses 0.6 mg twice daily, young healthy volunteers (mean age 25 to 28 years)
[3] = colchicine 0.6 mg twice a day, two randomized clinical trials, patients initiating urate lowering therapy; cited from earlier work
[4] = colchicine administration; cited from earlier work
[5] = test system: CYP2C9/19; conditions: Dvorak 2000, preliminary; 1 and 10 μM colchicine; cited from earlier work
[6] = clinical; conditions: human, in vivo, 0.6 mg
Protocol: A single-center, open-label, one sequence, two-period study was carried out in 23 healthy subjects. […] After completing a 21-day washout period, all subjects received 250 mg of clarithromycin administered twice daily for 7 days (Days 22 through 29), a sufficient dose and duration to inhibit CYP3A4 and Pgp.

[7] = cited from earlier work
[8] = mean, multiple (b.i.d.) oral doses 0.6 mg x 10 days, Day 25, healthy adults N=13
[9] = mean, single oral dose 0.6 mg, healthy adults N=13
[10] = median, multiple (b.i.d.) oral doses 0.6 mg x 10 days, Day 25, healthy adults N=13
[11] = median, single oral dose 0.6 mg, healthy adults N=13
[12] = co-administration of clarithromycin vs colchicine alone
[13] = colchicine 0.6 mg with steady-state clarithromycin vs colchicine alone
[14] = mean, Day 1, single-dose colchicine 0.6 mg alone, healthy adults n=23

In the case of `COc1cc2c(c(OC)c1OC)-c1ccc(OC)c(=O)cc1[C@@H](NC(C)=O)CC2` [Colchicine, (−)-N-[(7S,12aS)-1,2,3,10-tetramethoxy-9-oxo-5,6,7,9-tetrahydrobenzo[a]heptalen-7-yl]-acetamide], the “attainment of steady state (trough plasma concentrations)” value ([1]; 0.6 mg b.i.d., most subjects) is reported as “by approximately the eighth day of dosing”, the “plasma concentrations 24 hours post-dose” value ([1]; after a single 0.6 mg dose) is reported as “no longer quantifiable 24 hours post-dose in all but 1 subject; also recorded: not detectable by 24 hours post-dose” and the elimination half-life ([1]; calculated following a single oral dose, stated not an accurate estimate) is reported as “approximately 5 hours”. The concentration at 25 day ([1]; human, in vivo, Day 25, read-out: mean Cmin concentration) was 0.907 ng/mL, the concentration at 25 day ([1]; human, in vivo, po, mean, multiple (b.i.d.) oral doses 0.6 mg x 10 days, Day 25, healthy adults N=13, read-out: Cmin) was 0.907 ng/mL and the concentration at 25 day ([1]; human, in vivo, po, median, multiple (b.i.d.) oral doses 0.6 mg x 10 days, Day 25, healthy adults N=13, read-out: Cave) was 1.19 ng/mL. For the same compound, the concentration at 25 day ([1]; human, in vivo, po, median, multiple (b.i.d.) oral doses 0.6 mg x 10 days, Day 25, healthy adults N=13, read-out: Cmin) was 0.903 ng/mL, the Vd/F ([1]; human, in vivo, mean (% CV), 0.6-mg single dose, Day 1, N=13) was 540 L and the AUC0-τ [1, 8] was 29.05623 ng·h/mL. The Cave [1, 8] was 1.21068 ng/mL, the Kel [1, 8] was 0.03 h⁻¹ and the AUC0-inf [1, 9] was 12.2819 ng·h/mL. The AUC0-t [1, 9] was 10.50854 ng·h/mL, the Cmax [1, 9] was 2.47077 ng/mL and the Kel [1, 9] was 0.1829 h⁻¹. For the same compound, the AUC0-inf [1, 10] was 54.11343 ng·h/mL, the AUC0-τ [1, 10] was 28.45215 ng·h/mL and the Kel [1, 10] was 0.03 h⁻¹. For the same compound, the T1/2 [1, 10] was 26.51 h, the AUC0-t [1, 11] was 10.5609 ng·h/mL and the Kel [1, 11] was 0.1992 h⁻¹. For the same compound, the “secondary colchicine peak in individual subject data” value ([1]; single dose or multiple dosing) was “no subject experienced a secondary colchicine peak”, the “Cmin prior to morning dose higher than Cmin prior to evening dose” value ([1]; steady state, Day 23 and Day 24) was “approximately 12%” and the half-life [2] was 26.6 to 31.2 h. The “decrease in apparent clearance (CL/F) of colchicine” value [12] was 75%, the “increase in plasma elimination half-life (t1/2) of colchicine” value [12] was 233% and the “increase in mean colchicine AUC0-t” value [13] was 250%. For the same compound, the “increase in mean colchicine Cmax” value [13] was 167%, the CL/F [14] was 46.8 L/h and the Cmax [14] was 3 ng/mL. For the same compound, the Ke [14] was 0.132 h⁻¹, the t1/2 [14] was 9 h and the “frequency of gout flares” value [3] was “decreased the frequency of gout flares”. For the same compound, the “FMF patients that do not show a beneficial response” value [4] was 5-10%, the “CYP2C9/19 protein levels (immunoblotting)” value [5] was “appeared to decrease” and the AUC0-inf [6] was 16 ng·h/mL. The AUC0-t [6] was 12 ng·h/mL and the Vd/F [6] was 432 L.
Compound `COc1cc2c(c(OC)c1O)-c1ccc(OC)c(=O)cc1[C@@H](NC(C)=O)CC2` [2-DMC, 2-O-demethylcolchicine] has a metabolite plasma concentrations ([1]; after colchicine 0.6 mg single and multiple doses, LOQ 0.2 ng/mL) of less than 0.2 ng/mL.
For `CC[C@H]1OC(=O)[C@H](C)[C@@H](O[C@H]2C[C@@](C)(OC)[C@@H](O)[C@H](C)O2)[C@H](C)[C@@H](O[C@@H]2O[C@H](C)C[C@H](N(C)C)[C@H]2O)[C@](C)(OC)C[C@@H](C)C(=O)[C@H](C)[C@@H](O)[C@]1(C)O` [Clarithromycin], the “oral dose excreted in feces” value ([7]; in vivo, po) is listed as “About 40%”, the “dose excreted as unchanged drug in urine” value ([7]; oral 250 mg every 12 hours) is listed as “Approximately 20%” and the “dose excreted as unchanged drug in urine” value ([7]; oral 500 mg every 12 hours) is listed as roughly 30%. The absolute bioavailability ([7]; oral administration) was “approximately 50%” and the “increase of peak concentration by food” value ([7]; with food) was “about 24%”.
For `COc1c(O)cc2c(c1OC)-c1ccc(OC)c(=O)cc1[C@@H](NC(C)=O)CC2` [3-DMC, 3-O-demethylcolchciine], the “detectable metabolite plasma concentration” value ([1]; after colchicine 0.6 mg single and multiple doses, 13 subjects) is listed as “only one sample from 1 subject (of 13 subjects) had a detectable” and the “CYP2C9/19 protein levels (immunoblotting)” value [5] is listed as “decrease”.
